Positions of bridges follow the written chain, without caps; N, C: chain ends. Non-standard residues stand in square brackets, D forms with d. Residues, ends and D or L forms follow the SMILES beside them. Bounds are passed on as bounds.

One series concerns the target T1, human αvβ3-integrin (Homo sapiens, UniProt P05106+P06756).
T1 construct: purchased R&D
As to the kind of experiment: ELISA-like solid-phase binding assay, soluble integrin αvβ3 vs coated vitronectin. The note with it: coated vitronectin, soluble integrin; referenced to internal standard. In general terms: In an ELISA, binding on a coated surface is turned into a signal by an enzyme label.

Another series deals with T2, human αvβ5-integrin (Homo sapiens, UniProt P06756+P18084).
T2 construct: purchased Millipore
The series can be described thus: ELISA-like solid-phase binding assay, soluble integrin αvβ5 vs coated vitronectin. The note with it: referenced to internal standard.

The next series deals with T3, human αvβ6-Integrin (Homo sapiens, UniProt P06756+P18564).
T3 construct: purchased R&D
The series can be described thus: ELISA-like solid-phase binding assay, soluble integrin αvβ6 vs coated LAP (TGF-β). The note with it: coated LAP, soluble integrin; referenced to internal standard.

For a further series, the target named is T4, human αvβ8-Integrin (Homo sapiens, UniProt P06756+P26012).
T4 construct: purchased R&D
The series can be described thus: ELISA-like solid-phase binding assay, soluble integrin αvβ8 vs coated LAP (TGF-β). To be noted: referenced to internal standard.

For series [1], the target named is T5, human platelet integrin αIIbβ3 (Homo sapiens, UniProt P05106+P08514).
T5 construct: purchased VWR
The series can be described thus: ELISA-like solid-phase binding assay, soluble integrin αIIbβ3 vs coated fibrinogen. The note with it: referenced to internal standard.

Series [2] deals with T6, α5β1 integrin (Homo sapiens, UniProt P05556+P08648). As to the kind of experiment: ELISA-like solid-phase binding assay, soluble integrin α5β1 vs coated fibronectin. Also noted: purchased R&D. The note with it: coated fibronectin, soluble integrin; referenced to internal standard; read-out: IC50 α5β1.
In series [3] the target is T6, α5β1 integrin. As to the kind of experiment: Solid phase binding assay with surface-coated integrin and soluble fibronectin. The note with it: incubation with fibronectin, unpublished data. Here is the method: Tests carried out in cell-free systems, use isolated extracellular domains of integrins in conjunction with ECM proteins, either extracted from human tissue or produced by recombinant methods. Most of these tests are based on competitive solid phase binding assays, in which one component is bound to the multi-well plate and in a subsequent step, soluble ligands are added, testing their capacity to block the binding to that component. Mainly two procedures are described in the literature, differing in the molecule used to coat the surfaces: the isolated integrin extracellular domains or the ECM protein. In the first case, the integrin is coated on the surface, followed by an incubation with a mixture of the native ECM protein and increasing concentrations of the ligand of interest. In an alternative test system, the natural ECM protein (vitronectin for αvβ3 and αvβ5, LAP (TGFβ) for αvβ6 and αvβ8, fibronectin for α5β1 and fibrinogen for αIIbβ3) is immobilized onto the surface, and the soluble integrin, together with a serial dilution of the inhibitory ligand, is added afterwards. The read-out in both procedures is usually done in an ELISA-like manner by using conjugated antibodies recognizing the integrin head groups. […] For a detailed description of the reference to the SI. […]

The conditions of series [4]: cited from earlier work.

T4 sequence (P06756 31-992 limits assumed): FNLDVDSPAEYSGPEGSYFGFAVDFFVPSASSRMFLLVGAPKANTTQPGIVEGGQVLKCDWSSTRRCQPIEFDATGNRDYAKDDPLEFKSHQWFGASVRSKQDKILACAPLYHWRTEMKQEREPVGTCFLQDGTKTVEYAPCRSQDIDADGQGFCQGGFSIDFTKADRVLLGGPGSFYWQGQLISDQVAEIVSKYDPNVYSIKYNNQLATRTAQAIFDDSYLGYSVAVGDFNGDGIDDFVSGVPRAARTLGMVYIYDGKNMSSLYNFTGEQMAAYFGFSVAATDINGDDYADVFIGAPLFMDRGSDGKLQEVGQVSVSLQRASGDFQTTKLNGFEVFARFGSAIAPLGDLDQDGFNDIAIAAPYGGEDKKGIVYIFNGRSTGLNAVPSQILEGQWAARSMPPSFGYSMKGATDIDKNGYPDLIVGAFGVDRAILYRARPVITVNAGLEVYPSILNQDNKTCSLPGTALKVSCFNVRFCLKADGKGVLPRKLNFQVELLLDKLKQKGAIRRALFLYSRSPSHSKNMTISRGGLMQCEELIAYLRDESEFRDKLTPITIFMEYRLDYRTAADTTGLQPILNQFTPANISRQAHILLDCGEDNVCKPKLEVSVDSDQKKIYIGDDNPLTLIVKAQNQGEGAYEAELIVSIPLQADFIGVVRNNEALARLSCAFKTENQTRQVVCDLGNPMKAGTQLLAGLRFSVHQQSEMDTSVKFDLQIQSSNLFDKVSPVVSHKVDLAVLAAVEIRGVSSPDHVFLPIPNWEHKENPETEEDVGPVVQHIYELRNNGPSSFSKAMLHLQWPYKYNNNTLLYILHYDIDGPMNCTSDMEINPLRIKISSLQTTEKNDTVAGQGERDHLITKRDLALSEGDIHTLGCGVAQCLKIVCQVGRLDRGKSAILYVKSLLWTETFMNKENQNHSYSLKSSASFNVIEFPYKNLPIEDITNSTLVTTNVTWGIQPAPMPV
T4 sequence (P26012 43-684 limits assumed): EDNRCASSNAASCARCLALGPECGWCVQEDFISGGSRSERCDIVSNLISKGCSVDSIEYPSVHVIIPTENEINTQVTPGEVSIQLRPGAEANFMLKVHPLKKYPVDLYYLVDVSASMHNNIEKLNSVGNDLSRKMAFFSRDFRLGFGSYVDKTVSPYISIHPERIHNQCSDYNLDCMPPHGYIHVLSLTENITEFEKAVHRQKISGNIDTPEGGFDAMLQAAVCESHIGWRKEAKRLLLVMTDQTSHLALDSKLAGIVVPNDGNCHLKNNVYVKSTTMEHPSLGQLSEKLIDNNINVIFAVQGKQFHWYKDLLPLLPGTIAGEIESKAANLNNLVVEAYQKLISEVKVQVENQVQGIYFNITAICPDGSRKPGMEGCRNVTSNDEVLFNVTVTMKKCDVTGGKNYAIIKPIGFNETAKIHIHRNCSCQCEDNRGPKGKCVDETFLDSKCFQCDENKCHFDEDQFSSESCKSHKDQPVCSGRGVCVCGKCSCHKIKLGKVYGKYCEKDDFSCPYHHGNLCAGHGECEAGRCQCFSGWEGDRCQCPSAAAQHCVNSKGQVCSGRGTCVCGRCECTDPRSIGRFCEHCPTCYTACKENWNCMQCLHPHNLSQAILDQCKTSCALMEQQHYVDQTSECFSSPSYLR
T3 sequence (P06756 31-992 limits assumed): as the sequence (P06756 31-992 limits assumed) above
T3 sequence (P18564 22-707 limits assumed): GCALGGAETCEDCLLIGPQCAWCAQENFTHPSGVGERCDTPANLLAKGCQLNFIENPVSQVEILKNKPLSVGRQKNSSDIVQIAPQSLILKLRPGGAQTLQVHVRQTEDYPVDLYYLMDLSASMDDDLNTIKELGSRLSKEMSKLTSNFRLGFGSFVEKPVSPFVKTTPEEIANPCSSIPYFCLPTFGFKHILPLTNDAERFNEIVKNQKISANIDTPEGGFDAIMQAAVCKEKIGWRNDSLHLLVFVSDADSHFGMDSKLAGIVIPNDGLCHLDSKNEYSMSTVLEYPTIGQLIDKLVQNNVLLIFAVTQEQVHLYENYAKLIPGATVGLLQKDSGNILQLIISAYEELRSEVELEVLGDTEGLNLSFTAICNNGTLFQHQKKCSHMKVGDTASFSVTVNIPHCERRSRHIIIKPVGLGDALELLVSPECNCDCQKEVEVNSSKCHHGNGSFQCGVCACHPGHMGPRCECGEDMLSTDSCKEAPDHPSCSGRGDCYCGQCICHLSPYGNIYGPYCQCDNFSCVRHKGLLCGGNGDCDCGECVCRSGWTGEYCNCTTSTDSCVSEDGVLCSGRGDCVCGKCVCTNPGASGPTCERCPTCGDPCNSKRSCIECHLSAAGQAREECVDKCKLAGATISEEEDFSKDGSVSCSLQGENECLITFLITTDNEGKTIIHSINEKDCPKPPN
T1 sequence (P06756 31-992 limits assumed): as the sequence (P06756 31-992 limits assumed) above
T1 sequence (P05106 27-718 limits assumed): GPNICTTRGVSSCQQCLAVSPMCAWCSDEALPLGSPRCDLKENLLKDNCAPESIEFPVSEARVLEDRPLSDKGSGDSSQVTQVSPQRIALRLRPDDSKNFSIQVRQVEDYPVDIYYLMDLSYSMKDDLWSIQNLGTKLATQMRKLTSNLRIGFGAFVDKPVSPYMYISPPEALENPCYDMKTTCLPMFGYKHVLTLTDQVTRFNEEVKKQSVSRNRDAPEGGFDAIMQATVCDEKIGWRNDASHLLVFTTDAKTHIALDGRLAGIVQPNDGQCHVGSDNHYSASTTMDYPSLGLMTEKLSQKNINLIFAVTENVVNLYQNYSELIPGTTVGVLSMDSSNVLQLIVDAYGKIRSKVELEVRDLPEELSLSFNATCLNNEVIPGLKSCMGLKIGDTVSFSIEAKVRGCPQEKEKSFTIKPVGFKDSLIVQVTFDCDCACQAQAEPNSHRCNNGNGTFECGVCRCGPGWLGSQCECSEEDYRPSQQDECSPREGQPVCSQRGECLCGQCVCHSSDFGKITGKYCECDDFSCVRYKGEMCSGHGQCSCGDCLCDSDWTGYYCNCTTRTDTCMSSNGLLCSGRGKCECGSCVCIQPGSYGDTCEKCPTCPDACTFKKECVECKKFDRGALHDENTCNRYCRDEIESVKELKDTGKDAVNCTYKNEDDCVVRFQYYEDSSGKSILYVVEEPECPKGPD
T2 sequence (P06756 31-1048): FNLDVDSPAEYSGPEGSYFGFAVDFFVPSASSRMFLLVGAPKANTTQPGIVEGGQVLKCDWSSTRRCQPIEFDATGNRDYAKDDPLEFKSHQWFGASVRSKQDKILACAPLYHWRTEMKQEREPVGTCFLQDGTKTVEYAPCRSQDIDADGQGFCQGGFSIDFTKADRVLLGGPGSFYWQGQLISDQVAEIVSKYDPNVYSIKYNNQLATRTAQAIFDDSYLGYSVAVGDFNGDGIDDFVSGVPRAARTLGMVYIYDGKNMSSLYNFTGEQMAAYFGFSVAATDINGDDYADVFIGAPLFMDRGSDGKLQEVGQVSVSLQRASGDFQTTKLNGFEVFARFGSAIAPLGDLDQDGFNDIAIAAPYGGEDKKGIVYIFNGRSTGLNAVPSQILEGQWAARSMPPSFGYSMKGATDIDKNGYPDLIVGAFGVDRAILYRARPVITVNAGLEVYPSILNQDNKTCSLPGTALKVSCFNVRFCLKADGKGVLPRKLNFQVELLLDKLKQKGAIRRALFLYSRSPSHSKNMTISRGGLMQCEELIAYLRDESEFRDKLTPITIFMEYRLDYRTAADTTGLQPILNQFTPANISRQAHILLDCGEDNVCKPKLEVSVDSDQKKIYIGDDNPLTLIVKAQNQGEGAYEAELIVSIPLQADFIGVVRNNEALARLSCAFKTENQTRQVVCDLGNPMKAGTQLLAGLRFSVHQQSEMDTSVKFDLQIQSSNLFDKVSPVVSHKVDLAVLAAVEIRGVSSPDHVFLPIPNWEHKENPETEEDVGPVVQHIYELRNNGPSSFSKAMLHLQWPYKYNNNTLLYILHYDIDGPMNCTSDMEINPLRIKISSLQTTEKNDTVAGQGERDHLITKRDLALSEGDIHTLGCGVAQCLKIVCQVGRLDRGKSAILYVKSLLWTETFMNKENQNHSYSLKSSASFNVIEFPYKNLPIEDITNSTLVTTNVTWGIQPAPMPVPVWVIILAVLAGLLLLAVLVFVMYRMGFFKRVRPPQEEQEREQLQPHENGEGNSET
T2 sequence (P18084 24-799): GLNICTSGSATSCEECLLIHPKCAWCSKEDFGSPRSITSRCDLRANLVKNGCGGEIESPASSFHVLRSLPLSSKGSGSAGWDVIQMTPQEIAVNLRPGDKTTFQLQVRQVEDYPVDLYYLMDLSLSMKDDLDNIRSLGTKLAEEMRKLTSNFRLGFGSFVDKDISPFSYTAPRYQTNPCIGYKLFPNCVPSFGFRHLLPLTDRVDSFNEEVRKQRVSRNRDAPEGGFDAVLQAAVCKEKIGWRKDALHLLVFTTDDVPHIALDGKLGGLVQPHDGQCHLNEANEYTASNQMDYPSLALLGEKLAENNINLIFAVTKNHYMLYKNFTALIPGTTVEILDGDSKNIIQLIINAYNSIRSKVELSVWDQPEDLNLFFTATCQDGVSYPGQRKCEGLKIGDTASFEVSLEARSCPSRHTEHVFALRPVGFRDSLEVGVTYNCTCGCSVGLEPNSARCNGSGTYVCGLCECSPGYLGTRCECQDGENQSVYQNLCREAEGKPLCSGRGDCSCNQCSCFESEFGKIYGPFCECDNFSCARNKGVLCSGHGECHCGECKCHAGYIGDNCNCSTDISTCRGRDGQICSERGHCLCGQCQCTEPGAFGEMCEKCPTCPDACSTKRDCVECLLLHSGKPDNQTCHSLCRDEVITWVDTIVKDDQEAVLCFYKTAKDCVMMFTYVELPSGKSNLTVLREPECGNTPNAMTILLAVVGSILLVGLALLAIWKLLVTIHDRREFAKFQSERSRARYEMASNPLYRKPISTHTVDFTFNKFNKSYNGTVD

In general, IC50 refers to the concentration that inhibits the measured activity by half. For the compound `N=C(N)NCCC[C@H](NC(=O)CN)C(=O)NCC(=O)N[C@@H](CC(=O)O)C(=O)O` [GRGD] (H-GRGD-OH), the concentration for half-maximal inhibition (IC50) is 55 ± 7 nM on human αvβ3-integrin; 580 ± 23 nM on human αvβ5-integrin; above 10000 nM at human αvβ6-Integrin; above 10000 nM on human αvβ8-Integrin; above 10000 nM in series [1]; 137 ± 14 nM at α5β1 integrin [2].
With `NCCCC[C@H](NC(=O)[C@@H]1CCCN1C(=O)[C@H](CO)NC(=O)[C@H](CC(=O)O)NC(=O)CNC(=O)[C@H](CCCN=C(N)N)NC(=O)CN)C(=O)O` [GRGDSPK], the concentration for half-maximal inhibition (IC50) on human αvβ3-integrin was 12.2 ± 0.1 nM; at human αvβ5-integrin, 201 ± 32 nM; at human αvβ6-Integrin, 1030 ± 242 nM; on human αvβ8-Integrin it was above 10000 nM; in series [1] it was above 10000 nM; on α5β1 integrin [2] it was 66 ± 6 nM.
`C[C@H](N)C(=O)N[C@H]1CSSC[C@@H](C(=O)NCC(=O)O)NC(=O)[C@H](Cc2ccccc2)NC(=O)[C@@H]2CSSC[C@H](NC(=O)[C@H](CC(=O)O)NC1=O)C(=O)N[C@@H](CCCNC(=N)N)C(=O)NCC(=O)N[C@@H](CC(=O)O)C(=O)N2` [RGD-4C] (H-ACDCRGDCFCG-OH; disulfide 2-10, 4-8): the 50% inhibitory concentration (IC50) at human αvβ3-integrin is 8.3 ± 2.1 nM; on human αvβ5-integrin, 46 ± 11 nM; on human αvβ6-Integrin, 380 ± 44 nM; at human αvβ8-Integrin it was above 10000 nM; in series [1], above 10000 nM; at α5β1 integrin [2], 244 ± 37 nM. On human αvβ8-Integrin, the “IC50 αvβ8” value is “no affinity”. Further, the “IC50 αIIbβ3” value in series [1] was “no affinity”.
For the compound `N=C(N)NCCC[C@@H]1NC(=O)[C@H](CS)NC(=O)[C@@H](Cc2ccccc2)NC(=O)[C@H](CC(=O)O)NC(=O)CNC1=O` [c(RGDfC)] (cyclo(RGD[dF]C)), the IC50 at human αvβ3-integrin is 6.3 ± 0.5 nM; on human αvβ5-integrin it was 433 ± 23 nM; on human αvβ6-Integrin, 121 ± 10 nM; at human αvβ8-Integrin it was above 10000 nM; in series [1], above 10000 nM; on α5β1 integrin [2] it was 215 ± 55 nM.
With `N=C(N)c1ccc(N2CCN(C3CCN(CC(=O)O)CC3)CC2)cc1` [GR144053, 4-[4-[4-(aminoiminomethyl)phenyl]-1-piperazinyl]-1-piperidineacetic acid], the IC50 at human αvβ3-integrin was above 10000 nM; at human αvβ5-integrin it was above 10000 nM; on human αvβ6-Integrin it was above 10000 nM; at human αvβ8-Integrin, above 10000 nM; in series [1] it was 18 ± 2.2 nM; at α5β1 integrin [2] it was above 10000 nM.
For the compound `CC(C)[C@H]1C(=O)N[C@@H](CCCNC(=N)N)C(=O)NCC(=O)N[C@@H](CC(=O)O)C(=O)N[C@H](Cc2ccccc2)C(=O)N1C` [Cilengitide, c(RGDf(NMe)V)], the “antagonistic activity towards coated α5β1” value at α5β1 integrin [3] is listed as “low antagonistic activities”. Further, the half-life in man result in series [4] is recorded as “about four”. Also, the systemic metabolism entry in series [4] (man) is “not metabolized systemically”.
